Experimental data published in patent US20100120715A1, “BETA-LACTAMASE INHIBITORS” (priority 2007, published 2010).

Key:
Class A ESBL CTXM-15 = molecular target: T1, Class A ESBL CTXM-15 (Escherichia coli, UniProt Q9EXV5); experiment: β-lactamase enzyme inhibition (nitrocefin hydrolysis), CTXM-15; assay type: biochemical; details: purified enzyme; nitrocefin 100 μM, PBS pH 7.0; read-out: CTXM-15 IC50 Range
T1 construct: made in house; host or cells: E. coli BL21(DE3)
Experimental: (§1) Isolation of β-lactamases. For all examples, purified beta-lactamase enzymes were used to measure a compounds' ability to inhibit the Class A ESBL CTXM-15, the Class C P99 AmpC and the Class A carbapenemase KPC-2. […] The enzyme preparations are described herein.
(§2) For the isolation and purification of SHV-5, p99 AmpC, KPC-2 and CTX-M15 β-lactamases, E. coli BL21(DE3) bacterial cells carrying expression plasmids (expressed as native untagged proteins) for the individual β-lactamases were grown in 1 L of Superbroth (Teknova Inc. Hollister, Calif.) supplemented with 100 μg/ml kanamycin and 1×5052 (0.5% glycerol, 0.05% glucose and 0.2% α-lactose) at 35° C. for 18-20 hours. Cells were harvested by centrifugation (4,000×g, 4° C., 20 min), and resuspended in 50 ml of 10 mM HEPES pH 7.5 ( 1/20 of the initial volume). The cells were lysed by sonication (5 pulses of 45 seconds) at 45 W on ice. The lysates were clarified by centrifugation at 10,000×g for 40 minutes at 4° C. Samples were diluted 5-fold in 50 mM sodium acetate pH 5.0, stored overnight at 4° C., after which they were centrifuged at 10,000×g for 30 minutes to clarify, and filtered through 0.45 μm filters. The samples were loaded onto a 5 ml Capto S sepharose cation exchange column (GE Healthcare) pre-equilibrated with 50 mM sodium acetate pH 5.0. The column was washed with 5 column volumes of 50 mM sodium acetate pH 5.0 to wash out unbound protein and a linear gradient of NaCl (0 to 500 mM) was used to elute the protein (over 16 CV) from the column. Fractions were assayed for β-lactamase activity using Centa (Calbiochem, Gibbstown, N.J.) as a reporter β-lactamase substrate for activity in the isolated fractions. Active fractions were pooled, concentrated and further purified by gel filtration chromatography on a Superdex 75 prep grade gel filtration column (GE Healthcare, Piscataway, N.J.) pre-equilibrated in 50 mM Hepes pH 7.5, 150 mM NaCl. Active fractions were pooled concentrated, quantitated by BCA protein determination (Thermo Scientific, Rockford, Ill.), and frozen at −80° C. in 20% glycerol until use.
(§3) β-lactamase Inhibition. To determine the level of inhibition of β-lactamaseenzymes, compounds were diluted in PBS at pH 7.0 to yield concentrations between 100 and 0.005 μM in microtiter plates. An equal volume of diluted enzyme stock was added, and the plates were incubated at 37° C. for 10 min. Nitrocefin solution was then dispensed as substrate into each well at a final concentration of 100 μM, and the plates were immediately read with the kinetic program at 486 nm for 10 min on the SPECTRAMAX® Plus^384 (high-throughput microplate spectrophotometer; Molecular Devices Corp., Sunnyvale, Calif.). Maximum rates of metabolism were then compared to those in control wells (without inhibitors), and percentages of enzyme inhibition were calculated for each concentration of inhibitor. The concentration of inhibitor needed to reduce the initial rate of hydrolysis of substrate by 50% (IC50) was calculated as the residual activity of β-lactamase at 486 nm using the SoftMax Pro 5.0 software (Molecular Devices Corp.).

Class A ESBL SHV-5 = molecular target: T2, Class A ESBL SHV-5 (Klebsiella pneumoniae, UniProt P0A3M1); assay type: biochemical, E. coli; details: purified beta-lactamase enzyme (Examples 1 and 31-64); nitrocefin 100 μM, PBS pH 7.0; read-out: SHV-5 IC50 Range
T2 construct: made in house; host or cells: E. coli BL21(DE3) for purified enzyme; E. coli cells containing SHV-5 for extracts
Experimental: as §1
For the preparation of SHV-5 extracts, E. coli cells containing SHV-5 were cultured overnight with shaking at a volume of 20 mL. They were further diluted 10-fold and grown to mid-log phase (OD at 600 nm, 0.5-0.8) in Mueller-Hinton II (MH-II) broth at 37° C. The cells were pelleted at 5000 g, washed and resuspended in 2 mL PBS pH 7.0. The β-lactamase was extracted by four cycles of freezing and thawing followed by centrifugation. β-lactamase activity in the extract was measured with the chromogenic cephalosporin nitrocefin. The amount of protein in each β-lactamase preparation was determined by the bicinchoninic acid (BCA) assay.
as §2, §3

[1] = system: E. coli expressing the Class A ESBL SHV-5; experiment: microbe, parasite or virus in culture; assay type: cell-based; details: in the presence of fixed 8 μg/mL Ceftazidime
Description: (§4) To determine the ability of test compounds to potentiate the inhibition of the growth of bacterial strains producing beta-lactamase enzymes, classic cell based screening assays were employed. Four bacteria strains producing beta-lactamase enzymes were used: K. pneumoniae expressing the Class A Extended Spectrum Beta-Lactamase (ESBL) CTX-M-15, E. coli expressing the Class A ESBL SHV-5, E. cloacae expressing the Class C P99+, and K. pneumoniae expressing the Class A carbapenemase KPC-2. In order to evaluate the ability of test compounds to inhibit beta-lactamase activity, Applicants used a modification of the broth microdilution assay. The assay was conducted in Cation Adjusted Mueller Hinton Broth (CAMHB, BD # 212322, BD Diagnostic Systems, Sparks, Md.). Bacteria strains were grown for 3-5 hours in CAMBH broth. All four strains were grown in presence of 50 μg/mL ampicillin to ensure resistance is maintained. In the meantime, test compounds were diluted in DMSO to a 0.1 mg/mL stock. The compounds were added to a microtiter plate and were diluted in 2-fold serial dilutions in CAMHB in a final concentration range of 8 μg/mL to 0.015 μg/ml. An overlay of CAMHB containing a cephalosporin was added to the compounds at a final static concentration of 8 μg/ml. […] Each of these compound plates are made in quadruplicate, one for each bacteria strain. In addition to the titration of test compounds the MICs of a panel of cephalosporins is also tested to ensure the strains are behaving consistently from test to test. Once the test compound and cephalosporin are added the plates can be inoculated. Inocula are conducted according to CLSI broth microdilution method. After inoculation the plates are incubated for 16-20 hours at 37° C. then the Minimal Inhibitory Concentration (MIC) of the test compound is determined visually.

Class C P99 AmpC = molecular target: T3, Class C P99 AmpC (Enterobacter cloacae, UniProt P05364); assay type: biochemical; details: purified enzyme; nitrocefin 100 μM, PBS pH 7.0; read-out: P99 AmpC IC50 Range
T3 construct: made in house; host or cells: E. coli BL21(DE3)
Experimental: as §1, §2, §3

[2] = system: K. pneumoniae expressing the Class A carbapenemase KPC-2; experiment: microbe, parasite or virus in culture; details: in the presence of fixed 8 μg/mL Ceftazidime
Description: as §4

[3] = molecular target: T4, Class A carbapenemase KPC-2 (Klebsiella pneumoniae, UniProt Q9F663); experiment: β-lactamase enzyme inhibition (nitrocefin hydrolysis), KPC-2; assay type: biochemical; details: purified enzyme; nitrocefin 100 μM, PBS pH 7.0; read-out: KPC-2 IC50 Range
T4 construct: made in house; host or cells: E. coli BL21(DE3)
Experimental: as §1, §2, §3

[4] = system: K. pneumoniae expressing the Class A ESBL CTX-M-15; experiment: microbe, parasite or virus in culture; assay type: cell-based; details: in the presence of fixed 8 μg/mL Ceftazidime
Description: as §4, with “An overlay of CAMHB containing a cephalosporin was added to the compounds at a final static concentration of 8 μg/ml.” left out

T3 sequence (P05364 21-381): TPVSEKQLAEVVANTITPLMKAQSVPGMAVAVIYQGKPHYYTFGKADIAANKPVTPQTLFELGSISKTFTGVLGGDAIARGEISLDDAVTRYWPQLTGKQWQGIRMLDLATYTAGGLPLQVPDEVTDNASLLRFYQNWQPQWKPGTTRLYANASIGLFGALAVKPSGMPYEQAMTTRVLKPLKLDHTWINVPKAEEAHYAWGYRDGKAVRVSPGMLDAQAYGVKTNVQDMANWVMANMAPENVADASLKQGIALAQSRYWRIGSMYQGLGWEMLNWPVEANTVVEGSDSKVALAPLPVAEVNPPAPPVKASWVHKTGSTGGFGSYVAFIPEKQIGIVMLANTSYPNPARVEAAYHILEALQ
T4 sequence (Q9F663 25-293 limits assumed): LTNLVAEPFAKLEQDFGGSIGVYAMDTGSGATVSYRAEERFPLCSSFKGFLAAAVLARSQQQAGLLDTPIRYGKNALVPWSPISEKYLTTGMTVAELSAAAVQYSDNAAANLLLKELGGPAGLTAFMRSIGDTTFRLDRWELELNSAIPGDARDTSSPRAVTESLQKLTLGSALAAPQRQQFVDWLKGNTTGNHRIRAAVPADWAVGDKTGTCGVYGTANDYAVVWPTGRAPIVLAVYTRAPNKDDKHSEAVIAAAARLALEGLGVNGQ
T2 sequence (P0A3M1 22-286): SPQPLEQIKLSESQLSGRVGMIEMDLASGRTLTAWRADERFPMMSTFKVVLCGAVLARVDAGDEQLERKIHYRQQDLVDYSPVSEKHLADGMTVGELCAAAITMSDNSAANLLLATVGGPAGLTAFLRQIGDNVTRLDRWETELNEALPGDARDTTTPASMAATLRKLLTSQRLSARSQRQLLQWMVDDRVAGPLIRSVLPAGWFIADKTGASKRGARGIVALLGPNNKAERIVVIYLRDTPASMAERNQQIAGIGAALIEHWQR
T1 sequence (Q9EXV5 entry or part of it): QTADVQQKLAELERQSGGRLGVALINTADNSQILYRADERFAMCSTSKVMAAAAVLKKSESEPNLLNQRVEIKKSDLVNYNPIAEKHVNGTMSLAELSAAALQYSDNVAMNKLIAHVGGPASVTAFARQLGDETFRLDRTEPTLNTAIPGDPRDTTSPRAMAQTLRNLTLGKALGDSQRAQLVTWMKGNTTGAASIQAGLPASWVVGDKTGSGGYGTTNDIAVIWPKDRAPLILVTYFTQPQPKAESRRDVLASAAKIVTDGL

| SMILES | IC50 (Class A ESBL CTXM-15) [nM] | IC50 (Class A ESBL SHV-5) [nM] | MIC of example compound, E. coli SHV-5 + 8 μg/mL CAZ [1] | IC50 (Class C P99 AmpC) [nM] | MIC of example compound, K. pneumoniae KPC-2 + 8 μg/mL CAZ [2] | IC50 [3] [nM] | MIC of example compound, K. pneumoniae CTX-M-15 + 8 μg/mL CAZ [4] |
| --- | --- | --- | --- | --- | --- | --- | --- |
| COc1ccccc1C(=O)N[C@@H](Cc1cccc(C(=O)O)c1O)B(O)O [Example 34, (1R)-1-(2-methoxybenzoylamino)-2-(2-hydroxy-3-carboxyphenyl)ethyl-1-boronic acid] | < 10 | 100 to 1000 | A (A represents an MIC >8 μg/mL) | < 10 | C (C represents an MIC of <1 μg/mL) | 10 to 100 | – |
| O=C(Cn1cccn1)N[C@@H](Cc1cccc(C(=O)O)c1O)B(O)O [Example 40, (1R)-1-(Pyrazol-1-yl-acetylamino)-2-(2-hydroxy-3-carboxyphenyl)ethyl-1-boronic acid] | 10 to 100 | 10 to 100 | – | 10 to 100 | C (C represents an MIC of <1 μg/mL) | 10 to 100 | C (C represents an MIC of <1 μg/mL) |
| O=C(N[C@@H](Cc1cccc(C(=O)O)c1O)B(O)O)c1ccc(N2CCOCC2)nc1 [Example 48, (1R)-1-(6-morpholin-4-yl-pyridine-3-carbonyl)-amino-1-(3-carboxy-2-hydroxy)benzyl-methylboronic acid] | < 10 | 100 to 1000 | A (A represents an MIC >8 μg/mL) | 10 to 100 | C (C represents an MIC of <1 μg/mL) | < 10 | – |
| O=C(CNC(=O)c1ccccc1)N[C@@H](Cc1cccc(C(=O)O)c1O)B(O)O [Example 50, (1R)-1-(Hippuric amido)-2-(2-hydroxy-3-carboxyphenyl)ethyl-1-boronic acid] | < 10 | < 10 | – | < 10 | C (C represents an MIC of <1 μg/mL) | < 10 | C (C represents an MIC of <1 μg/mL) |
| O=C(N[C@@H](Cc1cccc(C(=O)O)c1O)B(O)O)c1cccnc1 [Example 51, (1R)-1-(Nicotinoylamino)-2-(2-hydroxy-3-carboxyphenyl)ethyl-1-boronic acid] | < 10 | 10 to 100 | – | < 10 | C (C represents an MIC of <1 μg/mL) | < 10 | C (C represents an MIC of <1 μg/mL) |
| Cn1ccc(C(=O)N[C@@H](Cc2cccc(C(=O)O)c2O)B(O)O)n1 [Example 53, (1R)-1-(1-Methyl-1H-pyrazole-3-carbonyl-amino)-2-(2-hydroxy-3-carboxyphenyl)ethyl-1-boronic acid] | < 10 | 100 to 1000 | – | < 10 | C (C represents an MIC of <1 μg/mL) | < 10 | C (C represents an MIC of <1 μg/mL) |
| O=C(N[C@@H](Cc1cccc(C(=O)O)c1O)B(O)O)c1cncnc1 [Example 60, (1R)-1-(Pyrimidine-5-carbonyl-amino)-2-(2-hydroxyl-3-carboxyphenyl)ethyl-1-boronic acid] | 10 to 100 | 10 to 100 | – | < 10 | C (C represents an MIC of <1 μg/mL) | < 10 | C (C represents an MIC of <1 μg/mL) |
| O=C(Cc1ccccn1)N[C@@H](Cc1cccc(C(=O)O)c1O)B(O)O.O=CO [Example 61, (1R)-1-(2-Pyridylacetylamino)-2-(2-hydroxy-3-carboxyphenyl)ethyl-1-boronic acid formate salt] | < 10 | < 10 | – | < 10 | C (C represents an MIC of <1 μg/mL) | 10 to 100 | C (C represents an MIC of <1 μg/mL) |
| CS(=O)(=O)c1ccc(CC(=O)N[C@@H](Cc2cccc(C(=O)O)c2O)B(O)O)cc1 [Example 62, (1R)-1-(2-(4-(methylsulfonyl)phenyl)-acetylamino)-2-(2-hydroxy-3-carboxyphenyl)ethyl-1-boronic acid] | < 10 | < 10 | – | < 10 | C (C represents an MIC of <1 μg/mL) | < 10 | C (C represents an MIC of <1 μg/mL) |
